In PubChem BioAssay AID248 (DTP/NCI, 2004):
Several values for one entry are separate records, joined by “and”; a condition that tells them apart may be missing. Equal entries are not always repeated. Toxic doses and inconclusive results are not listed. Cut-off read from the data, not from the text of the source: active = T/C of 150% or more; inactive = T/C below 125%.

Tested on: L1210 leukemia ip in BDF1 mice, survival T/C
Assay: NCI In Vivo Anticancer Drug Screen. Data for tumor model L1210 Leukemia (intraperitoneal) in B6D2F1 (BDF1) mice
Details: endpoint: mean survival time, higher = longer survival
Procedure, shortened: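 Antitumor effect is assessed in tumor-bearing animals. Survival in the compound arm is compared with a vehicle-dosed control arm and expressed as their quotient.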

[1] = dose: 100.0 mg/kg/injection, schedule: Q04DX002 (ip), vehicle: Klucel (hydroxypropylcellulose) (HPC)
[2] = dose: 100.0 mg/kg/injection, schedule: Q04DX003 (ip), vehicle: saline with Tween-80
[3] = dose: 200.0 mg/kg/injection, schedule: Q04DX003 (ip), vehicle: saline with Tween-80
[4] = dose: 400.0 mg/kg/injection, schedule: Q04DX003 (ip), vehicle: saline with Tween-80
[5] = dose: 50.0 mg/kg/injection, schedule: Q01DX009 (ip), vehicle: saline with Tween-80
[6] = dose: 100.0 mg/kg/injection, schedule: Q01DX009 (ip), vehicle: saline with Tween-80
[7] = dose: 50.0 mg/kg/injection, schedule: Q01DX001 (ip), vehicle: carboxymethylcellulose (CMC)
[8] = dose: 100.0 mg/kg/injection, schedule: Q01DX001 (ip), vehicle: carboxymethylcellulose (CMC)
[9] = dose: 200.0 mg/kg/injection, schedule: Q01DX001 (ip), vehicle: carboxymethylcellulose (CMC)
[10] = dose: 400.0 mg/kg/injection, schedule: Q01DX001 (ip), vehicle: carboxymethylcellulose (CMC)
[11] = dose: 100.0 mg/kg/injection, schedule: Q01DX001 (ip), vehicle: Klucel (hydroxypropylcellulose) (HPC)
[12] = dose: 200.0 mg/kg/injection, schedule: Q01DX001 (ip), vehicle: Klucel (hydroxypropylcellulose) (HPC)
[13] = dose: 400.0 mg/kg/injection, schedule: Q01DX001 (ip), vehicle: Klucel (hydroxypropylcellulose) (HPC)

Measured: T/C

CCCCN1C(=O)C(=O)N(c2ccccc2C(F)(F)F)C1=O
inactive: dose: 100.0 mg/kg/injection, schedule: Q01DX009 (ip), vehicle: Klucel (hydroxypropylcellulose) (HPC) 106 % of control and 88 % of control | [1] 94 % of control and 105 % of control | dose: 200.0 mg/kg/injection, schedule: Q01DX009 (ip), vehicle: Klucel (hydroxypropylcellulose) (HPC) 106 % of control | dose: 200.0 mg/kg/injection, schedule: Q04DX002 (ip), vehicle: Klucel (hydroxypropylcellulose) (HPC) 101 % of control and 90 % of control | dose: 400.0 mg/kg/injection, schedule: Q01DX009 (ip), vehicle: Klucel (hydroxypropylcellulose) (HPC) 107 % of control | dose: 400.0 mg/kg/injection, schedule: Q04DX002 (ip), vehicle: Klucel (hydroxypropylcellulose) (HPC) 94 % of control and 116 % of control

CC(C)(C(=O)O)c1ccc(-c2ccccc2)cc1
inactive: [2] 102 % of control | [3] 97 % of control | [4] 106 % of control

O=C(O)c1cccnc1C(=O)Nc1cccc2ccccc12
inactive: dose: 100.0 mg/kg/injection, schedule: Q04DX002 (ip), vehicle: saline with Tween-80 105 % of control | dose: 200.0 mg/kg/injection, schedule: Q04DX002 (ip), vehicle: saline with Tween-80 105 % of control | dose: 400.0 mg/kg/injection, schedule: Q04DX002 (ip), vehicle: saline with Tween-80 105 % of control

C=C(Br)CNC(=O)NCC
inactive: dose: 25.0 mg/kg/injection, schedule: Q01DX009 (ip), vehicle: saline with Tween-80 94 % of control | [5] 91 % of control | [6] 105 % of control | [2] 97 % of control

Cc1ccc([S+](c2ccccc2)c2cc(C)ccc2C)cc1 (stereo not given)
inactive: dose: 2.5 mg/kg/injection, schedule: Q01DX001 (ip), vehicle: carboxymethylcellulose (CMC) 103 % of control | dose: 5.0 mg/kg/injection, schedule: Q01DX001 (ip), vehicle: carboxymethylcellulose (CMC) 102 % of control

N#CCOc1ccc(Cl)cc1
inactive: dose: 6.25 mg/kg/injection, schedule: Q01DX009 (ip), vehicle: Klucel (hydroxypropylcellulose) (HPC) 96 % of control | dose: 12.5 mg/kg/injection, schedule: Q01DX009 (ip), vehicle: Klucel (hydroxypropylcellulose) (HPC) 97 % of control | dose: 25.0 mg/kg/injection, schedule: Q01DX009 (ip), vehicle: Klucel (hydroxypropylcellulose) (HPC) 95 % of control and 108 % of control | [1] 87 % of control

Cc1ncc(CO)c(/C=N/OCc2nnc(Nc3ccccc3)s2)c1O
inactive: [2] 92 % of control | [3] 101 % of control | [4] 106 % of control

CCN1CC(=O)N(C)C1=S
inactive: [7] 103 % of control | [8] 100 % of control | [9] 97 % of control | [10] 118 % of control

O=C(Nc1cc(Cl)ccc1Cl)C(Cl)(Cl)Cl
inactive: [11] 97 % of control | [12] 103 % of control | [13] 93 % of control

O=C=Nc1ccc(C(=O)CCl)cc1
inactive: dose: 20.0 mg/kg/injection, schedule: Q01DX009 (ip), vehicle: saline with Tween-80 91 % of control | dose: 40.0 mg/kg/injection, schedule: Q01DX009 (ip), vehicle: saline with Tween-80 91 % of control | dose: 80.0 mg/kg/injection, schedule: Q01DX009 (ip), vehicle: saline with Tween-80 101 % of control | dose: 160.0 mg/kg/injection, schedule: Q01DX009 (ip), vehicle: saline with Tween-80 98 % of control

CCOC(=O)c1ccc(Nc2nc3ccccc3o2)cc1
inactive: [8] 91 % of control | [9] 94 % of control | [10] 93 % of control

CCS(=O)(=O)CS(=O)(=O)c1ccc(C)cc1
inactive: [11] 103 % of control | [12] 103 % of control | [13] 103 % of control

Cc1ccc(NNS(=O)(=O)c2cccc([N+](=O)[O-])c2)c(Br)c1
inactive: [11] 96 % of control | dose: 100.0 mg/kg/injection, schedule: Q04DX003 (ip), vehicle: Klucel (hydroxypropylcellulose) (HPC) 102 % of control | [12] 94 % of control | dose: 200.0 mg/kg/injection, schedule: Q04DX003 (ip), vehicle: Klucel (hydroxypropylcellulose) (HPC) 96 % of control | [13] 100 % of control | dose: 400.0 mg/kg/injection, schedule: Q04DX003 (ip), vehicle: Klucel (hydroxypropylcellulose) (HPC) 96 % of control

CC12CCCCC1C1=C(CCCC1)CC2 (stereo not given)
inactive: [7] 97 % of control | [8] 92 % of control | [9] 94 % of control | [10] 97 % of control

COC1C(C)(C)C2(C)CC[N+]1(Cc1ccccc1)C2 (stereo not given)
inactive: dose: 25.0 mg/kg/injection, schedule: Q04DX002 (ip), vehicle: saline 106 % of control | dose: 50.0 mg/kg/injection, schedule: Q04DX002 (ip), vehicle: saline 97 % of control | dose: 100.0 mg/kg/injection, schedule: Q04DX002 (ip), vehicle: saline 116 % of control

NC(=O)c1[nH]c(CCCc2ccccc2)nc1N
inactive: [5] 102 % of control | dose: 50.0 mg/kg/injection, schedule: Q04DX003 (ip), vehicle: saline with Tween-80 103 % of control | dose: 100.0 mg/kg/injection, schedule: Q01DX001 (ip), vehicle: saline with Tween-80 110 % of control | [6] 90 % of control | [2] 109 % of control | dose: 200.0 mg/kg/injection, schedule: Q01DX001 (ip), vehicle: saline with Tween-80 100 % of control | dose: 200.0 mg/kg/injection, schedule: Q01DX009 (ip), vehicle: saline with Tween-80 102 % of control | [3] 100 % of control

COC(=O)c1cc(C)cc(OC(=S)N(C)C)c1C
inactive: [8] 96 % of control | dose: 100.0 mg/kg/injection, schedule: Q01DX009 (ip), vehicle: carboxymethylcellulose (CMC) 103 % of control | [9] 93 % of control | dose: 200.0 mg/kg/injection, schedule: Q01DX009 (ip), vehicle: carboxymethylcellulose (CMC) 98 % of control | [10] 96 % of control | dose: 400.0 mg/kg/injection, schedule: Q01DX009 (ip), vehicle: carboxymethylcellulose (CMC) 93 % of control | dose: 800.0 mg/kg/injection, schedule: Q01DX009 (ip), vehicle: carboxymethylcellulose (CMC) 103 % of control
